Test results from patent US20260224549A1, “COMPOUNDS, COMPOSITIONS, AND METHODS FOR TREATING, AMELIORATING, AND/OR PREVENTING PAIN” (priority 2023, published 2026).

Key:
[1] = Static vapor sorption studies; assay type: physicochemical; conditions: Panel: Static humidity; 7 experiments
Text: Static Vapor Sorption Studies
Static vapor sorption studies were done in hermetic humidity chambers using saturated salts, or environmental humidity chambers to control the temperature and humidity. Data collected during dynamic vapor sorption studies often are not at thermodynamic equilibrium. To gain a better understanding of the water uptake and the critical humidity level of the API, samples of the starting material (i.e., Form A) were monitored in static humidity chambers to allow the sample to equilibrate with atmospheric moisture.
In these studies, water vapor sorption was determined gravimetrically by storing samples in open aluminum dishes. Compound I diphosphate salt lot was used for this study. Samples were stored at 7 different humidity levels at ambient temperature (Table 19). Approximately 50 mg of Form A was staged at each humidity condition. The samples were weighed before placing them in the chamber and then re-weighed after 3 weeks. After re-weighing, the samples were immediately analyzed by XRD to determine whether a change in form had occurred.
The sample stored at 11% RH was an outlier and was therefore omitted from the final isotherm plot. The static isotherm plot is roughly consistent with the DVS isotherm plot (FIG. 12F) with a large moisture uptake at around 40% RH and a maximum uptake between 4 and 5 weight percent.

human μ-opioid receptor = conditions: G-protein signaling over β-arrestin signaling
Text: Applying ^19F NMR, one can measure the quantity of G-protein signaling conformation, as well as that of β-arrestin signaling conformation, of the μ-opioid receptor as induced by an agonist.

clinical = conditions: for CL/F (apparent clearance), Mean / Tlast (time of last measurable concentration), Median / Tlast, Max / Tlast, Min / Tmax, Min / Tmax, Max / AUC(0-t): single oral dose, N = 6; for CL/F (apparent clearance), Mean / Tlast (time of last measurable concentration), Median / Tlast, Max / Tlast, Min / Tmax, Min / Tmax, Max / Tmax / half-life / Vd/F / AUC(0-inf) / Cmax / AUC(0-t): plasma; for Tmax / half-life / Vd/F / AUC(0-inf) / Cmax / AUC(0-t): human; for AUC(0-t): Mean
Text: The study comprised a single ascending dose (SAD), sequential cohort study, incorporating a food effect (FE) evaluation. Up to 40 subjects were to be studied in 5 cohorts (Cohorts A1 to A5), each cohort consisting of 8 subjects.
Subjects in Cohort A3 participated in 2 treatment periods (once in Fed state, once in Fasted state) separated by a minimum of 6 days. All subjects were to return for a poststudy on Day 5 (+2 days) after their final dose for a final safety assessment.
All doses for Cohorts A1, A2, A4, and A5 were administered in the fasted state in the moming of Day 1.
The actual blood sampling dates and times relative to dosing time were listed by subject and nominal sampling time, with time deviation calculated, for all subjects with available plasma concentration data.
For PK concentration data, the number of non-missing values, number of below limit of quantification (BLQ) values, arithmetic mean, standard deviation, median, minimum, maximum, coefficient of variation (CV %), geometric mean and geometric coefficient of variation (geo CV %) values was presented.
For PK parameter data, the number of non-missing values, arithmetic mean, standard deviation, median, minimum, and maximum values were presented.

CN(C)C[C@H]1CN(CCc2ccsc2)CC[C@]1(O)c1cccc(C(N)=O)c1 [Compound I, 3-(3S, 4R)-3-((dimethylamino)methyl)-4-hydroxy-1-(2-(thiophen-3-yl)ethyl)piperidin-4-yl-benzamide]
No. of experiments giving Amorphous Form [1]: 0
No. of experiments giving Form A [1]: 7
No. of experiments with No solid recovered [1]: 0
abuse liability (Conditioned Place Preference, Drug Self-Administration, Drug Discrimination): no abuse liability
Withdrawal symptoms (preclinical model): only minimal Withdrawal symptoms
signaling pathway selectivity (human μ-opioid receptor): extremely cell-signaling-pathway-selective μ-opioid agonist
CL/F (apparent clearance), Mean (clinical; 20 mg DS (Fasted)): 1130 L/h
Tlast (time of last measurable concentration), Median (clinical; 20 mg DS (Fasted)): 4.00 h
Tlast, Max (clinical; 20 mg DS (Fasted)): 4.03 h
Tlast, Min (clinical; 20 mg DS (Fasted)): 3.50 h
Tmax, Min (clinical; 20 mg DS (Fasted)): 0.500 h
CL/F (clinical; 20 mg fasted): 1130 L/h
mean concentrations measurable through (clinical; 20 mg fasted): 3.5 h
CL/F (apparent clearance), Mean (clinical; 60 mg DS (Fasted)): 937 L/h
Tlast (time of last measurable concentration), Median (clinical; 60 mg DS (Fasted)): 12.0 h
Tlast, Max (clinical; 60 mg DS (Fasted)): 24.0 h
Tlast, Min (clinical; 60 mg DS (Fasted)): 6.00 h
Tmax, Max (clinical; 60 mg DS (Fasted)): 3.02 h
CL/F (clinical; 60 mg fasted): 937 L/h
mean concentrations measurable through (clinical; 60 mg fasted): 8 h
CL/F (apparent clearance), Mean (clinical; 120 mg DS (Fasted)): 541 L/h
Tlast (time of last measurable concentration), Median (clinical; 120 mg DS (Fasted)): 36.0 h
Tlast, Max (clinical; 120 mg DS (Fasted)): 48.0 h
Tlast, Min (clinical; 120 mg DS (Fasted)): 16.0 h
Tmax, Max (clinical; 120 mg DS (Fasted)): 3.00 h
mean concentrations measurable through (clinical; 120 mg fasted): 36 h
CL/F (apparent clearance), Mean (clinical; 200 mg DS (Fasted)): 452 L/h
Tlast (time of last measurable concentration), Median (clinical; 200 mg DS (Fasted)): 48.0 h
Tlast, Max (clinical; 200 mg DS (Fasted)): 48.1 h
Tlast, Min (clinical; 200 mg DS (Fasted)): 36.0 h
Tmax, Max (clinical; 200 mg DS (Fasted)): 2.02 h
Tmax, Min (clinical; 200 mg DS (Fasted)): 1.00 h
mean concentrations measurable through (clinical; 200 mg fasted): 36 h
CL/F (apparent clearance), Mean (clinical; 400 mg DS (Fasted)): 500 L/h
Tlast (time of last measurable concentration), Median (clinical; 400 mg DS (Fasted)): 48.0 h
Tlast, Max (clinical; 400 mg DS (Fasted)): 48.0 h
Tlast, Min (clinical; 400 mg DS (Fasted)): 48.0 h
Tmax, Max (clinical; 400 mg DS (Fasted)): 2.02 h
Tmax, Min (clinical; 400 mg DS (Fasted)): 1.00 h
mean concentrations measurable through (clinical; 400 mg fasted): 48 h
Tmax (clinical; oral): 1.5 to 2.5 h
half-life (clinical; oral): 29.4 to 31.4 h
Vd/F (clinical; oral, 20 mg): 1380 L
half-life (clinical; oral, 20 mg): 1.05 h
Vd/F (clinical; oral, 60 mg): 6790 L
half-life (clinical; oral, 60 mg): 7.89 h
Vd/F (clinical; oral, 120 mg): 12300 L
Vd/F (clinical; oral, 200 mg): 18100 L
Vd/F (clinical; oral, 400 mg): 20400 L
AUC(0-inf) (clinical; po, 20 mg): 18.4 ng·h/mL
Cmax (clinical; po, 20 mg): 9.69 ng/mL
Tmax (clinical; po, 20 mg): 2.5 h
Vd/F (clinical; po, 20 mg): 1380 L
half-life (clinical; po, 20 mg): 1.05 h
AUC(0-t) (clinical; po, 20 mg, AUC0-last (zero to 24 hours postdose), 20 mg DS (Fasted)): 16.5 ng·h/mL
AUC(0-t) (clinical; po, 20 mg, AUC0-t (zero to the last quantifiable concentration), 20 mg DS (Fasted)): 13.9 ng·h/mL
AUC(0-inf) (clinical; po, 60 mg): 79.8 ng·h/mL
Cmax (clinical; po, 60 mg): 51.7 ng/mL
Tmax (clinical; po, 60 mg): 2.25 h
Vd/F (clinical; po, 60 mg): 6790 L
half-life (clinical; po, 60 mg): 7.89 h
AUC(0-t) (clinical; po, 60 mg, AUC0-last (zero to 24 hours postdose), 60 mg DS (Fasted)): 71.6 ng·h/mL
AUC(0-t) (clinical; po, 60 mg, AUC0-t (zero to the last quantifiable concentration), 60 mg DS (Fasted)): 67.1 ng·h/mL
AUC(0-inf) (clinical; po, 120 mg): 245 ng·h/mL
Cmax (clinical; po, 120 mg): 98.5 ng/mL
Tmax (clinical; po, 120 mg): 2.28 h
Vd/F (clinical; po, 120 mg): 12300 L
half-life (clinical; po, 120 mg): 31.4 h
AUC(0-t) (clinical; po, 120 mg, AUC0-last (zero to 24 hours postdose), 120 mg DS (Fasted)): 211 ng·h/mL
AUC(0-t) (clinical; po, 120 mg, AUC0-t (zero to the last quantifiable concentration), 120 mg DS (Fasted)): 231 ng·h/mL
AUC(0-inf) (clinical; po, 200 mg): 446 ng·h/mL
Cmax (clinical; po, 200 mg): 220 ng/mL
Tmax (clinical; po, 200 mg): 2 h
Vd/F (clinical; po, 200 mg): 18100 L
half-life (clinical; po, 200 mg): 29.4 h
AUC(0-t) (clinical; po, 200 mg, AUC0-last (zero to 24 hours postdose), 200 mg DS (Fasted)): 346 ng·h/mL
AUC(0-t) (clinical; po, 200 mg, AUC0-t (zero to the last quantifiable concentration), 200 mg DS (Fasted)): 381 ng·h/mL
AUC(0-inf) (clinical; po, 400 mg): 832 ng·h/mL
Cmax (clinical; po, 400 mg): 318 ng/mL
Tmax (clinical; po, 400 mg): 1.5 h
Vd/F (clinical; po, 400 mg): 20400 L
half-life (clinical; po, 400 mg): 32.1 h
AUC(0-t) (clinical; po, 400 mg, AUC0-last (zero to 24 hours postdose), 400 mg DS (Fasted)): 698 ng·h/mL
AUC(0-t) (clinical; po, 400 mg, AUC0-t (zero to the last quantifiable concentration), 400 mg DS (Fasted)): 794 ng·h/mL
